Consider three compounds from patent US8138374B2, “Composition for external application to skin” (Shiseido Company, Ltd., priority 2007, dated 2012).

The nature of this data set: Solubility evaluation (appearance and solubility). The format is physicochemical. The conditions noted are these: for Solubility (%) Ethanol / Appearance (Room Temperature) / Solubility (%) Water: room temperature; for Solubility (%) Ethanol / Solubility (%) Water: judged by appearance, ">" = concentration at which dissolution was confirmed, actual solubility greater than or equal. The protocol: Furthermore, dissolution was evaluated based on appearance after preparing a solution at room temperature. The solubilities shown in the table indicate the concentration at which dissolution was confirmed, and those results shown with a “>” symbol in the table indicate the concentration at which the substance was confirmed to dissolve, and actual solubility is greater than or equal to this concentration.

Consider `CNCC(=O)N(C)C` [N,N-dimethyl-2-(methylamino)acetoamide], for which the “Appearance (Room Temperature)” value is “Liquid”. Under “ethanol”, the “Solubility (%) Ethanol” value was more than 58%. For the same compound, the “Solubility (%) Water” value (water) is more than 55%.

Turning to `CNCC(=O)O` [Sarcosine, reference compound], where the note is “ethanol”, the “solubility in ethanol (in words)” value was “poorly soluble” and the “Solubility (%) Ethanol” value worked out at 0.10%. Further, under “water”, the “solubility in water (in words)” value is on record as “high solubility” and the “Solubility (%) Water” value was determined as 71.5%.

Consider `CNCC(=O)N(C)C.Cl` [N,N-dimethyl-2-(methylamino)acetoamide hydrochloride], for which the “Appearance (Room Temperature)” value is recorded as “White crystal”. Moreover, the “Solubility (%) Ethanol” value (ethanol) is more than 14.1%. The “Solubility (%) Water” value (water) is given as more than 77%.
